{
  "source": "paper PMC4579270",
  "about": "“Identification and Characterization of an Irreversible Inhibitor of CDK2” (Chemistry & Biology, 2015)",
  "key": {"[1]": {"target": "T1, immobilized CDK2/cyclin A (Homo sapiens, UniProt P24941)", "T1 construct": "made in house; host or cells: Escherichia coli", "assay": "SPR kinetics of non-covalent complex", "format": "binding", "details": "1:1 model, 25 °C", "excerpt": "To determine the kinetics of the interactions of NU6310 and NU6300 with immobilized CDK2/cyclin A, the sensor surface was exposed to five different concentrations of each inhibitor for different contact times (Figures 2A and 2B). On these relatively short time scales (compared with the experiment above), the interactions between CDK2 and either NU6300 or NU6310 appeared reversible, since the sensorgrams were well described by a simple 1:1 model and the dissociation was similar irrespective of the contact time. It enabled the estimation of the kinetic constants (kon, koff, KD) for the formation of the non-covalent complex. […] The formation of a covalent complex could not be detected on the time scales of these experiments, and the injection times could not be extended further for practical reasons.\nFigure 2 NU6300 Is a Covalent Inhibitor of CDK2 (A and B) SPR sensorgrams for the interaction between immobilized CDK2 and NU6310 and NU6300. (A) The effects of time on the interaction were evaluated by comparing the dissociation rates for the compounds injected at 10 μM for different contact times (30, 60, 120, and 240 s). Sensorgrams are aligned with respect to the start of the dissociation. (B) The determination of rate constants was based on global analysis of a set of sensorgrams recorded for a concentration series (39, 156, 625, 2,500, and 10,000 nM) of the compounds. Theoretical curves of a fitted 1:1 Langmuir interaction model (black) are overlaid on the experimental traces. (C) Phosphorylation of GST-Rb by CDK2/cyclin A. The slower-migrating band is hyperphosphorylated GST-Rb (Phospho-Rb). Time points (in minutes) are shown above. (D) Time-dependent inhibition of CDK2/cyclin A. Activity was measured using the ADP-Glo assay format against a peptide of sequence HHASPRK. Error bars indicate SD of the measurements. See also Figure S1 and Table S1.\nThe interaction experiments were performed using SPR biosensor technology, with Biacore S51 and T100 instruments, CM5 biosensor chips, and standard reagents (GE Healthcare). Full details can be found in the Supplemental Experimental Procedures. […]\nCDK2 was immobilized to activated carboxylated dextran surfaces by amine coupling to give surface densities of 6000-25000 RU. All interaction experiments were performed at 25 °C in 10 mM phosphate pH 7.4, 137 mM NaCl, 3 mM KCl, with addition of 0.05 % Tween 20, 5 % (v/v) DMSO, and at a flow rate of 90 or 30 µL/min. […]\nSensorgrams or extracted report points from reference surfaces and blank injections were subtracted from the raw data prior to data analysis, using Biacore T100 evaluation software 2.0. A 1:1 interaction model was fitted globally to sets of sensorgrams recorded with different contact times and at different inhibitor concentrations in multi-cycle experiments. Kinetic parameters were determined from sensorgrams with 30 s and 60 s contact time. Standard deviations were based on at least 4 measurement series.\nCDK2/cyclin A was mixed with a freshly prepared solution of NU6300 to achieve DMSO and inhibitor concentrations of 2% and 2 mM respectively, concentrated by ultrafiltration to a CDK2/cyclin A final concentration of circa 5 mg ml-1, and then crystallized as described (Davies et al., 2002). Briefly, crystals were grown from a mother liquor containing 0.6–0.8 M KCl, 0.9–1.2 M (NH4)2SO4, and 100 mM HEPES (pH 7.0). Sitting drops were set up with a 1:1 ratio of protein to reservoir solution in a total initial volume of 0.5 or 1.0 µl.\nBefore data collection, crystals were briefly immersed in cryo-protectant (1 M sodium"}, "CDK2": {"target": "CDK2 (Homo sapiens, UniProt P24941)", "assay": "CDK2 kinase inhibition assay", "format": "biochemical", "details": "read-out: CDK2 median inhibitory concentration [IC50]", "protocol": "CDK2/cyclin A kinase assays were carried out using a method modified from [Brown et al. (1999)] or by using the ADP-Glo assay (Promega) essentially as described by the manufacturers. A full description of the assay formats is provided in the Supplemental Experimental Procedures."}, "AMPK (hum)": {"system": "AMPK (hum)", "assay": "Dundee kinase screen re-test (standard format and 4 hour pre-incubation)", "format": "biochemical, human", "protocol": "(§1) Prior to determining its cellular activity, we carried out a screen to assess its selectivity against a panel of 131 protein kinases under conditions that would not distinguish between a reversible or irreversible mode of action. […] These 13 kinases and 29 additional kinases, selected for their known sensitivity to other inhibitors within the purine series, were then tested in a modified screening format in which the assay was repeated following a 4-hr pre-incubation (Table S3B). […] However, conformational flexibility around the active site may promote such an interaction with a residue from another part of the structure ([Martin et al., 2012]).\nTable S3, Related to Figure 4. NCL-0006300 protein kinase selectivity. […]\nDundee protein kinase screen (Bain et al., 2007). […]\n(B) Selected kinases were re-tested in the Dundee kinase screen against NU6300 at a single concentration of 0.5 µM both in the standard assay format and following a 4 hour pre-incubation in the presence of NU6300. Kinases which have very low activity after the 4 hour incubation so that results might not be wholly reliable are boxed in salmon. Kinases where the activity after a 4 hour pre-incubation is < 50% that in the standard assay format are highlighted in red."}, "JNK2": {"target": "JNK2 (Homo sapiens, UniProt P45984)", "sequence (P45984 whole entry)": "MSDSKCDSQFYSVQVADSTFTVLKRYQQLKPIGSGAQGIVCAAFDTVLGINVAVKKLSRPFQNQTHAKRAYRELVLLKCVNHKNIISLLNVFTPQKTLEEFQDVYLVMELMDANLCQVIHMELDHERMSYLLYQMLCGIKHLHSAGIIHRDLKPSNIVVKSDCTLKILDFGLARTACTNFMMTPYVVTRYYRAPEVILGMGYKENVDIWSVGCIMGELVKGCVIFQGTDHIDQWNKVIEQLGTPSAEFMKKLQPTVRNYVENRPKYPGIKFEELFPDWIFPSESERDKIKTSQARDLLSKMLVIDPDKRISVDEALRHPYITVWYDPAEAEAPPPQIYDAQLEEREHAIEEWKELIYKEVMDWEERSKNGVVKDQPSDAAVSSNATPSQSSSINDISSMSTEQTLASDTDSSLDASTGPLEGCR", "assay": "Dundee protein kinase screen", "format": "biochemical", "details": "JNK2, 1µM; read-out: %Remaining activity at 1µM NU6300", "protocol": "as §1\n(§2) Table S3, Related to Figure 4. NCL-0006300 protein kinase selectivity. (A) NU6300 was tested at a single concentration of 1µM against 131 protein kinases present in a Dundee protein kinase screen (Bain et al., 2007). Values given are % activity remaining and are the average of duplicate measurements: 0-25% (red), 26-50% (yellow), 51-80% (black) and above 81% (green). The kinase domain sequences (as defined by UniProt) of […]\n(§3) have a lysine residue at a position close to CDK2 Lys88 or Lys89. However, in the structure of tyrosine-protein kinase BTK (PDB ID: 3GEN) the residue equivalent to CDK2 Asp86 is Cys481 and therefore there is the potential for a covalent adduct to be formed through this side chain. […]"}, "Aurora B": {"target": "Aurora B (Homo sapiens, UniProt Q96GD4)", "sequence (Q96GD4 whole entry)": "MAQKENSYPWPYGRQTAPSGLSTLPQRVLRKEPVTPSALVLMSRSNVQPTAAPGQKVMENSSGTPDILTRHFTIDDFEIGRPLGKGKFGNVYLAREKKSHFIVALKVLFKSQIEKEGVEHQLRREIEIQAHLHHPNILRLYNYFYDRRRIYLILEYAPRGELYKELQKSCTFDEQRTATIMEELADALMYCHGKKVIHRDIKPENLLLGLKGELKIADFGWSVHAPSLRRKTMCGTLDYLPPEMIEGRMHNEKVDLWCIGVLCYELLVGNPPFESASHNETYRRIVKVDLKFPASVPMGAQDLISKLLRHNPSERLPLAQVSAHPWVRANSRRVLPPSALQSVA", "assay": "Dundee protein kinase screen", "format": "biochemical", "details": "read-out: %Remaining activity at 1µM NU6300", "protocol": "as §1, §2, §3"}, "EPH-A2": {"target": "EPH-A2 (Homo sapiens, UniProt P29317)", "sequence (P29317 24-976)": "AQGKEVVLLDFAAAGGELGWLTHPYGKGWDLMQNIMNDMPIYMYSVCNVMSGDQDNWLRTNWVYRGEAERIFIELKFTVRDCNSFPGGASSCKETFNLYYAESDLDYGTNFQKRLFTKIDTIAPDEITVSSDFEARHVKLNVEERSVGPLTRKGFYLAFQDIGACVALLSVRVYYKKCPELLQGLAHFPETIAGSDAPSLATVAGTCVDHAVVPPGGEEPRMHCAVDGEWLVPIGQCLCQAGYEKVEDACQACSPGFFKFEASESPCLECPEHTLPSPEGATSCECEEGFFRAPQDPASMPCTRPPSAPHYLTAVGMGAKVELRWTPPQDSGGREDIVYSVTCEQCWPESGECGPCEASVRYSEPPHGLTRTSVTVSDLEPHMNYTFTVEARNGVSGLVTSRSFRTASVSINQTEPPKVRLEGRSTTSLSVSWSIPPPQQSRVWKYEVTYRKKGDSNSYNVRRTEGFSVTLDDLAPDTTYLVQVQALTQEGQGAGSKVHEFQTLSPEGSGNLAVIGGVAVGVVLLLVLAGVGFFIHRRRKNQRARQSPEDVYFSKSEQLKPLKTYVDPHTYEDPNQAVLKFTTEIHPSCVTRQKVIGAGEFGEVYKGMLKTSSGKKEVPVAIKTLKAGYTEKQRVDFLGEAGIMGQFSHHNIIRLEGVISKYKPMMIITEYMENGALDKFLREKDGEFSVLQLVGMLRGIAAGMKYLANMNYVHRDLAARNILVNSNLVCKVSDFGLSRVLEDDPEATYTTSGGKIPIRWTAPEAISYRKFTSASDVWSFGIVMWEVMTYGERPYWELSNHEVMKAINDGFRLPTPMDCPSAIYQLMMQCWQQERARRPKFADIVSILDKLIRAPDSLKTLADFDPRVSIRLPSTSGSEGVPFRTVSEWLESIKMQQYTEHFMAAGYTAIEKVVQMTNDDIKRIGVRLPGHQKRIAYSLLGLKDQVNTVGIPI", "assay": "Dundee protein kinase screen", "format": "biochemical", "details": "EPH-A2, 1µM; read-out: %Remaining activity at 1µM NU6300", "protocol": "as §1, §2, §3"}, "MKK1": {"target": "MKK1 (Homo sapiens, UniProt Q02750)", "sequence (Q02750 whole entry)": "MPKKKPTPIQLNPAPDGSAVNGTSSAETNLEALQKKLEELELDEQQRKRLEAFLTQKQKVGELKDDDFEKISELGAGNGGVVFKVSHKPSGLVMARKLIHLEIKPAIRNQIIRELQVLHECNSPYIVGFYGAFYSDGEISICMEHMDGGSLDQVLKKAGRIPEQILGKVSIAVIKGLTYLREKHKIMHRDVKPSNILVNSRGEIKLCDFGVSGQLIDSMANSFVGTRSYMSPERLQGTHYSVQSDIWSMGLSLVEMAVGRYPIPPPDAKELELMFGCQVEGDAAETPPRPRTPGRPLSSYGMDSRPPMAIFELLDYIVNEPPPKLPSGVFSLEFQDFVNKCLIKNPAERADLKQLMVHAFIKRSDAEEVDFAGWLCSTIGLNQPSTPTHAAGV", "assay": "Dundee protein kinase screen", "format": "biochemical", "details": "MKK1, 1µM; read-out: %Remaining activity at 1µM NU6300", "protocol": "as §1, §2, §3"}, "JNK1": {"target": "JNK1 (Homo sapiens, UniProt P45983)", "sequence (P45983 whole entry)": "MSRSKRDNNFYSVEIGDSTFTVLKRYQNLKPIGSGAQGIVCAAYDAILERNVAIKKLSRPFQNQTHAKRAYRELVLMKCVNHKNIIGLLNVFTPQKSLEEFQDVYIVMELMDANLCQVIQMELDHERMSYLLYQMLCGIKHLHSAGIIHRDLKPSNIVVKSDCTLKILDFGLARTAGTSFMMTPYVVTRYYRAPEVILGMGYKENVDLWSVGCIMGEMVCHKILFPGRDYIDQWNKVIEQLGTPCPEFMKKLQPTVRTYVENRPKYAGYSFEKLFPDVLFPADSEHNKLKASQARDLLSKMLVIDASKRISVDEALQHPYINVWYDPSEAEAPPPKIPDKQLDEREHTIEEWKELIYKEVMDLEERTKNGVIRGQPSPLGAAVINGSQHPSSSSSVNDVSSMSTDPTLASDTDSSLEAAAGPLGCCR", "assay": "Dundee protein kinase screen", "format": "biochemical", "details": "JNK1, 1µM; read-out: %Remaining activity at 1µM NU6300", "protocol": "as §1, §2, §3"}},
  "data": [
    {"compound": "CCS(=O)(=O)c1ccc(Nc2nc(OCC3CCCCC3)c3nc[nH]c3n2)cc1", "note": "[NU6310, 6-(cyclohexylmethoxy)-N-(4-(ethylsulfonyl)phenyl)-9H-purin-2-amine]", "values": [
      {"measurement": "Kd", "setting": "[1]", "result": "716 ± 12", "unit": "nM"},
      {"measurement": "koff", "setting": "[1]", "result": "0.0809 ± 0.007", "unit": "s⁻¹"},
      {"measurement": "kon", "setting": "[1]", "result": "113000 ± 1e+09", "unit": "M⁻¹ s⁻¹"},
      {"measurement": "IC50", "setting": "CDK2", "result": 160, "unit": "nM"}
    ]},
    {"compound": "C=CS(=O)(=O)c1ccc(Nc2nc(OCC3CCCCC3)c3nc[nH]c3n2)cc1", "note": "[NU6300, 6-(cyclohexylmethoxy)-N-(4-(vinylsulfonyl)phenyl)-9H-purin-2-amine]", "values": [
      {"measurement": "%Remaining activity at 0.5µM NU6300 - 4hr RT preincubation", "setting": "AMPK (hum); 4hr RT preincubation", "result": 73, "unit": "%"},
      {"measurement": "%Remaining activity at 0.5µM NU6300 - Usual assay format", "setting": "AMPK (hum); usual format", "result": 70, "unit": "%"},
      {"measurement": "Kd", "setting": "[1]", "result": "1310 ± 180", "unit": "nM"},
      {"measurement": "koff", "setting": "[1]", "result": "0.0713 ± 0.0063", "unit": "s⁻¹"},
      {"measurement": "kon", "setting": "[1]", "result": "54500 ± 7.2e+08", "unit": "M⁻¹ s⁻¹"},
      {"measurement": "remaining activity at 1 µM", "setting": "JNK2", "result": 88, "unit": "%"},
      {"measurement": "remaining activity at 1 µM", "setting": "Aurora B", "result": 26, "unit": "%"},
      {"measurement": "remaining activity at 1 µM", "setting": "EPH-A2", "result": 91, "unit": "%"},
      {"measurement": "remaining activity at 1 µM", "setting": "MKK1", "result": 58, "unit": "%"},
      {"measurement": "remaining activity at 1 µM", "setting": "JNK1", "result": 60, "unit": "%"}
    ]}
  ]
}
